Assay results reported in patent US20090005385A1, “Treatment or Prevention of Cancer or Cardiovascular Disease with Methenyltetrahydrofolate Synthetases” (CORNELL RESEARCH FOUNDATION, INC., priority 2004, published 2009).
Where “and” joins values, the source holds several entries; their conditions need not be identical. Equal entries are not always repeated. Where two headings read alike, the source gives them in different places.

Experiments:
[1] = target: T1, MTHFS (Mus musculus, UniProt Q9D110); assay: Inhibition of MTHFS by folates/antifolates, reaction specificity (Ki, Km); type: biochemical; details: for Km: substrate of MTHFS
T1 sequence (Q9D110 1-203): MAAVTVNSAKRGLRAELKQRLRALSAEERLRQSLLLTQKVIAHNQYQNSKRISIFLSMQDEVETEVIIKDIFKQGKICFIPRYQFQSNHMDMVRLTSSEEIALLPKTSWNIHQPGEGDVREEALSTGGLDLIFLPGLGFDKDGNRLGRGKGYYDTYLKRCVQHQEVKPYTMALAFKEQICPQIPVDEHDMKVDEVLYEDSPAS
Procedure: Tissue samples were sonicated four times for 15 s in a buffer containing 100 mM HEPES pH 7.0, 100 mM sodium chloride, 5 mM EDTA, 1% Tween-20. The solution was clarified by centrifugation. MTHFS activity was determined using a spectrophotometer by monitoring the appearance of 5,10-methenyltetrahydrofolate, which has an absorbance maximum at 355 nm. For a typical assay, 50 μL of clarified tissue supernatant was added to a quartz cuvette containing 100 μM (6S)-5-formylTHF, 1 mM Mg-ATP and 100 mM MES, pH 6.0 and the rate of 5,10-methenylTHF formation was quantified. Activity measurements were normalized to total protein that was quantified using the Lowry-Bensadoun method (Bensadoun et al., “Assay of Proteins in the Presence of Interfering Materials,” Anal Biochem 70:241-250 (1976), which is hereby incorporated by reference in its entirety).
Several 10-formyl-substituted folates were screened for their ability to inhibit wild-type MTHFS.

[2] = system: MCF-7 cells; assay: Radiolabeled folate accumulation in cultured cells treated with catecholamines; type: cell-based, human; details: 12 h, 25 nM (6S)-[^3H]-5-formylTHF, 0-150 μM catecholamine
Procedure: Cell monolayers at 70% confluence in 6-well plates were labeled for 12 h in defined αMEM lacking folate and glycine, but supplemented with 25 nM (6S)-[^3H]5-formylTHF and 0, 25 μM, 50 μM, 75 μM, 100 μM, or 150 μM NADA, dopamine, or epinephrine. Cells were harvested by washing with 5 mL PBS, trypsinized, and pelleted by centrifugation and viable cells (determined by their ability to exclude trypan blue) were quantified. The cell pellets were lysed with 0.2 M ammonium hydroxide, and the intracellular tritium was quantified using a Beckman LS 8100 liquid scintillation counter.
Because the addition of NADA to the chase medium increased folate turnover rates in MCF-7 cells, the effects of various catecholamines on [^3H]folate accumulation was investigated. Cells were cultured for 12 h in defined αMEM medium containing 25 nM (6S)-[^3H]-5-formylTHF and various concentrations of NADA, dopamine, and epinephrine, and cellular [^3H]folate content was determined.

[3] = target: T2, MTHFS.oxNADA.Cu^2+ complex (Mus musculus, UniProt Q9D110); assay: MTHFS-mediated folate catabolism in vitro (HPLC, pABG formation); type: biochemical; details: 5 min incubation, five independent experiments
T2 construct: hexa-histidine tag; made in house; host or cells: E. coli BL21 Star
T2 sequence (Q9D110 1-203): T1 sequence (Q9D110 1-203)
Procedure: Recombinant mouse MTHFS protein (50 μM) was incubated with 50 μM CuCl2, 50 μM NADA (oxidized with equimolar amounts of sodium periodate, extracted with ethyl acetate, and diluted 1:1 with 1 M Tris pH 8.0), in 50 mM Tris pH 8.0 for 5 min, then dialyzed against 2 L of 50 mM Tris pH 8.0 at 4° C. for 5 hours to remove unbound CuCl2 and oxidized NADA. (6S)-[^3H]-5-methylTHF or (6S)-[^3H]-5-formylTHF, were evaporated to dryness using a speedvac, resuspended in 20 μL of 50 μM unlabeled (6S)-5-methylTHF or (6S)-5-formylTHF in 100 mM MES pH 6.5, then approximately 275,000 cpm of the labeled folate was added immediately to either the dialyzed mouse MTHFS protein or the dialysis buffer as a control. The mixture was incubated 5 min at room temperature, then either analyzed immediately by HPLC or flash frozen using dry ice/ethanol. The reactions were spiked with a mixture of unlabeled pABG, (6R,S)-5-formylTHF, and (6S)-5-methylTHF, then analyzed on a Shimadzu HPLC equipped with a diode array UV spectrophotometric detector and a Luna 5μ 250×4.6 mm C18 column (Phenomenex). […] For each analysis, 1.0 ml fractions were collected into scintillation tubes, and the tritium was quantified using a Beckman LS 6500 liquid scintillation counter. […]

[4] = target: T3, MTHFS (Homo sapiens, UniProt P49914); details: cited from earlier work
T3 sequence (P49914 1-203): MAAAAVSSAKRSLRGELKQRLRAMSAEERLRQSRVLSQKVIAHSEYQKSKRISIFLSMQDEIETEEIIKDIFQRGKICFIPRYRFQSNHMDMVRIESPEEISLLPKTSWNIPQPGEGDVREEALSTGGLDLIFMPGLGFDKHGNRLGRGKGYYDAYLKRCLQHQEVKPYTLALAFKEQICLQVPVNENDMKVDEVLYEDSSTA

[5] = system: MCF-7 cells; assay: Folate turnover in cultured cells (pulse-chase); type: cell-based, human; details: 20 μM in chase medium
Procedure: Cell monolayers at 75% confluence were washed with PBS, then labeled for 12 h in defined αMEM lacking folate and glycine and supplemented with 25 nM (6S)-[^3H]5-formylTHF. For the chase, cell monolayers were washed with 10 ml of PBS, trypsinized, and pelleted by centrifugation. The cells were seeded in triplicate (1×10^6 cells) into 100 mm culture plates containing 10 ml of defined αMEM supplemented with 2 μM folic acid. Catecholamines (20 μM dopamine, NADA, and L-dopa) were prepared freshly and added to the chase media prior to the addition of labeled cells. Cells were harvested at defined time points, the medium was removed and the tritium in the medium was quantified. The cell monolayers were washed with PBS and lysed with 0.2 M ammonium hydroxide. Tritium remaining in the cells was quantified using a Beckman LS 8100 liquid scintillation counter.
Catecholamine availability may be rate limiting for MTHFS-catalyzed folate catabolism in MCF-7 cells. The effects of exogenous catecholamines on folate turnover rates were determined using pulse-chase analyses in MCF-7 cells. Folate turnover in MCF-7 cells labeled with [^3H]-5-formylTHF is biphasic, with an initial rapid phase of turnover followed by a slower phase (Anguera et al., J. Biol. Chem. 278:29856-29862 (2003), which is hereby incorporated by reference in its entirety). Addition of 20 μM NADA to the chase medium increased the magnitude of the rapid phase of folate turnover by 12% compared to untreated cells (FIG. 11A). […] To distinguish between these two mechanisms, 20 μM dopamine and L-dopa were added to the chase medium. Dopamine is the precursor of NADA, and both dopamine and L-dopa can function as oxidants following oxidation of their diphenolic ring generating dopamine-quinone or dopa-quinone (Rescigno et al., Biochemical Pharmacology 56:1089-1096 (1998); Graham, D. G. Mol. Pharmacol. 14:633-643 (1978), which are hereby incorporated by reference in their entirety). […] The addition of dopamine to the culture medium increased the magnitude of the rapid phase of folate turnover by only 4% relative to untreated cells (FIG. 11A). The minor effect of dopamine on folate turnover may reflect N-acetyltransferase-mediated dopamine acetylation that generating NADA. […] In summary, the pulse chase experiments indicate that NADA may be limiting for in vivo folate catabolism, and NADA may function specifically as the electron acceptor molecule for MTHFS-mediated folate catabolism.

[6] = 37° C., pH 6.0, inhibitor of MTHFS, read-out: Ki

Ki [1, 6] [µM] | SMILES | further results
13 ± 6 | Nc1nc2ncc(CN(C=O)c3ccc(C(=O)N[C@@H](CCC(=O)O)C(=O)O)cc3)nc2c(=O)[nH]1 [10-formylfolic acid] | fold increase of affinity for MTHFS by N^10 formylation of folic acid ([1]; relative to folic acid): ~5 fold
1 ± 0.3 | Nc1nc2ncc(CNc3ccc(C(=O)NC(CCC(=O)NC(CCC(=O)NC(CCC(=O)NC(CCC(=O)NC(CCC(=O)O)C(=O)O)C(=O)O)C(=O)O)C(=O)O)C(=O)O)cc3)nc2c(=O)[nH]1 (stereo not drawn) [folic acidGlu5] | 
58 ± 5 | Nc1nc2ncc(CNc3ccc(C(=O)N[C@@H](CCC(=O)O)C(=O)O)cc3)nc2c(=O)[nH]1 [folic acid] | 
0.03 ± 0.01 | Nc1nc2c(c(=O)[nH]1)NC(CN(C=O)c1ccc(C(=O)N[C@@H](CCC(=O)N[C@@H](CCC(=O)N[C@@H](CCC(=O)O)C(=O)O)C(=O)O)C(=O)O)cc1)CN2 (mixture of isomers) [(6RS)10-formylTHFGlu3] | fold increased affinity (Ki) compared to the substrate 5-formylTHF triglutamate (Km) [1]: 13 fold
20 ± 2 | CN(CC1CNc2nc(N)[nH]c(=O)c2N1C=O)c1ccc(C(=O)N[C@@H](CCC(=O)N[C@@H](CCC(=O)N[C@@H](CCC(=O)O)C(=O)O)C(=O)O)C(=O)O)cc1 (mixture of isomers) [(6RS)5-formyl,10-methylTHFGlu3] | 
0.7 ± 0.3 | Nc1nc2c(c(=O)[nH]1)N(C=O)C(CCNc1ccc(C(=O)N[C@@H](CCC(=O)O)C(=O)O)cc1)CN2 (mixture of isomers) [(6RS)5-formylTHHF, 5-formyltetrahydrohomofolate] | 
5 ± 2 | Nc1nc2c(c(=O)[nH]1)NC(CN(C=O)c1ccc(C(=O)O)cc1)CN2 (racemic) [(6RS)10-formylTHPteroate] | 

The next lines start with the compound.

SMILES | Ki [1, 6] [µM] | further results
Nc1nc2c(c(=O)[nH]1)N(C=O)C(CNc1ccc(C(=O)O)cc1)CN2 (racemic) [(6RS)5-formylTHPteroate] |  | Km ([1]; 37° C., pH 6.0): 33 ± 10 µM
Nc1nc2ncc(CNc3ccc(C(=O)N[C@@H](CCC(=O)N[C@@H](CCC(=O)N[C@@H](CCC(=O)O)C(=O)O)C(=O)O)C(=O)O)cc3)nc2c(=O)[nH]1 [folic acidGlu3] | 17 ± 3 | 
Nc1nc2c(c(=O)[nH]1)NC(CN(C=O)c1ccc(C(=O)N[C@@H](CCC(=O)O)C(=O)O)cc1)CN2 (stereo partly drawn) [(6R)10-formylTHF, 10-formyltetrahydrofolate] | 0.15 | fold increased affinity for MTHFS (Ki) compared to the substrate 5-formylTHF (Km) [1]: 56 fold and 60 fold
CN(CCC1CNc2nc(N)[nH]c(=O)c2N1C=O)c1ccc(C(=O)N[C@@H](CCC(=O)O)C(=O)O)cc1 (mixture of isomers) [(6RS)5-formyl,10-methylTHHF] | 6 ± 3 | 
Nc1nc2c(c(=O)[nH]1)N(C=O)C(CNc1ccc(C(=O)N[C@@H](CCC(=O)O)C(=O)O)cc1)CN2 (stereo partly drawn) [(6S)5-formylTHF, 5-formyl tetrahydrofolate] |  | Km ([1]; 37° C., pH 6.0): 10 ± 3 µM
CNC[C@H](O)c1ccc(O)c(O)c1 [epinephrine] |  | [^3H]folate accumulation [2]: Neither the addition of dopamine nor epinephrine to culture media impaired [^3H]folate accumulation
CN(CC1CNc2nc(N)[nH]c(=O)c2N1C=O)c1ccc(C(=O)N[C@@H](CCC(=O)O)C(=O)O)cc1 (mixture of isomers) [(6RS)5-formyl,10-methylTHF] | 10 ± 1 | 
Nc1nc2c(c(=O)[nH]1)NC(CN(C=O)c1ccc(C(=O)N[C@@H](CCC(=O)N[C@@H](CCC(=O)N[C@@H](CCC(=O)O)C(=O)O)C(=O)O)C(=O)O)cc1)CN2 (stereo partly drawn) [10-formylTHF triglutamate] |  | Ki ([1]; natural isomer, read-out: Ki for MTHFS): 0.015 µM
CN1c2c([nH]c(N)nc2=O)NC[C@@H]1CNc1ccc(C(=O)N[C@@H](CCC(=O)O)C(=O)O)cc1 [(6S)-5-methylTHF] |  | conversion to pABG by reconstituted mouse MTHFS.oxNADA.Cu^2+ protein [3]: Approximately 1%; Ki [4]: 18 µM
N[C@@H](Cc1ccc(O)c(O)c1)C(=O)O [L-dopa] |  | folate turnover rates compared to untreated cells [5]: did not affect folate turnover rates
Nc1nc2c(c(=O)[nH]1)N(C=O)C(CNc1ccc(C(=O)NC(CCC(=O)NC(CCC(=O)NC(CCC(=O)O)C(=O)O)C(=O)O)C(=O)O)cc1)CN2 (racemic) [(6RS)5-formylTHFGlu3] |  | Km ([1]; 37° C., pH 6.0): 0.4 ± 0.1 µM
Nc1nc2c(c(=O)[nH]1)NC(CCN(C=O)c1ccc(C(=O)NC(CCC(=O)O)C(=O)O)cc1)CN2 (racemic) [(6RS)10-formylTHHF] | 0.19 ± 0.02 | Ki fold lower than the Ki for 5-formylTHHF [1]: 3 fold
